Data on 5 compounds can be found in ChEMBL document CHEMBL4002585, “Novel CLK1 inhibitors based on N-aryloxazol-2-amine skeleton - A possible way to dual VEGFR2 TK/CLK ligands” (Eur J Med Chem, 2017).

Assay [1] concerns the target T1, Dual specificity protein kinase CLK1 (Homo sapiens, UniProt P49759). As to the kind of experiment: Inhibition of human CLK1 using substrate after 30 mins in presence of [gamma-33P]ATP by liquid scintillation counting.
For assay [2], the target named is Dual specificity tyrosine-phosphorylation-regulated kinase 1A (Homo sapiens, UniProt Q13627). Put plainly: Inhibition of DYRK1A (unknown origin) using substrate after 30 mins in presence of [gamma-33P]ATP by liquid scintillation counting.
The nature of assay [3]: Inhibition of Leishmania infantum MHOM/BR/82/BA-2 N-terminal His6-tagged GSK3 expressed in Escherichia coli BL21(DE3) using Biotin-labeled GSP-2 peptide substrate after 90 mins in presence of [gamma33-P]ATP by scintillation proximity assay. (SPA uses beads or plates that emit light when radiolabelled molecules are held near them.)
Assay [4] concerns the target T1, Dual specificity protein kinase CLK1. Put plainly: Inhibition of human CLK1 (148 to 484 residues) expressed in Escherichia coli BL21(DE3) preincubated for 10 mins followed by AFRREWSPGKEAKK substrate addition by pyruvate kinase and lactate dehydrogenase coupled enzyme assay.
Assay [5] is described as follows: Inhibition of Trypanosoma brucei GSK3 using Biotin-labeled GSP-2 peptide substrate after 90 mins in presence of [gamma33-P]ATP by scintillation proximity assay.
The nature of assay [6]: Inhibition of Leishmania major strain Friedlin fusion protein GSK3 using Biotin-labeled GSP-2 peptide substrate after 90 mins in presence of [gamma33-P]ATP by scintillation proximity assay.
Assay [7] can be described thus: Inhibition of Leishmania major strain Friedlin N-terminal His6-tagged GSK3 expressed in Escherichia coli BL21(DE3) using Biotin-labeled GSP-2 peptide substrate after 90 mins in presence of [gamma33-P]ATP by scintillation proximity assay.
Assay [8] can be described thus: Inhibition of Leishmania major strain Friedlin endogenous GSK3 using Biotin-labeled GSP-2 peptide substrate after 90 mins in presence of [gamma33-P]ATP by scintillation proximity assay.
Assay [9] has as its target Vascular endothelial growth factor receptor 2 (Homo sapiens, UniProt P35968). Put plainly: Inhibition of VEGFR2 (unknown origin) using substrate after 30 mins in presence of [gamma-33P]ATP by liquid scintillation counting.
For assay [10], the target named is CDK9/cyclin T1 (Homo sapiens, UniProt P50750). Put plainly: Inhibition of CDK9/CyclinT (unknown origin) using substrate after 30 mins in presence of [gamma-33P]ATP by liquid scintillation counting. It counts as protein-complex assay.
Assay [11] addresses Glycogen synthase kinase-3 (Homo sapiens, UniProt P49840+P49841). As to the kind of experiment: Inhibition of GSK3 alpha/beta (unknown origin) using substrate after 30 mins in presence of [gamma-33P]ATP by liquid scintillation counting. The format is protein assay.
Assay [12] is described as follows: Inhibition of GSK3 (unknown origin) using substrate after 30 mins in presence of [gamma-33P]ATP by liquid scintillation counting. Also on record: species or system Homo sapiens.

The structures appear in SMILES notation.

T1 sequence (P49759 whole entry): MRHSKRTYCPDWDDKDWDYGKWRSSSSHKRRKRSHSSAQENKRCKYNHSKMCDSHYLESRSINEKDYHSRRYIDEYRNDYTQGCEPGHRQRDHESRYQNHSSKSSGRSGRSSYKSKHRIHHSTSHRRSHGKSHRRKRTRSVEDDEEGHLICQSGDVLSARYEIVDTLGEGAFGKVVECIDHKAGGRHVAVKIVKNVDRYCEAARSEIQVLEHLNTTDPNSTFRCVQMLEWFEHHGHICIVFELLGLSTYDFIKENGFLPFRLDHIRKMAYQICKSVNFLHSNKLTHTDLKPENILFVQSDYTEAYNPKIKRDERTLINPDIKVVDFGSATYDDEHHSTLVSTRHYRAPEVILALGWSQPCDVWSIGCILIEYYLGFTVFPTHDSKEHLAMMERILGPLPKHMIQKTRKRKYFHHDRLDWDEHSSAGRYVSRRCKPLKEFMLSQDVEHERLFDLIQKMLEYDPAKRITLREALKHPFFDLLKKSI
Chain of Vascular endothelial growth factor receptor 2 (P35968 whole entry): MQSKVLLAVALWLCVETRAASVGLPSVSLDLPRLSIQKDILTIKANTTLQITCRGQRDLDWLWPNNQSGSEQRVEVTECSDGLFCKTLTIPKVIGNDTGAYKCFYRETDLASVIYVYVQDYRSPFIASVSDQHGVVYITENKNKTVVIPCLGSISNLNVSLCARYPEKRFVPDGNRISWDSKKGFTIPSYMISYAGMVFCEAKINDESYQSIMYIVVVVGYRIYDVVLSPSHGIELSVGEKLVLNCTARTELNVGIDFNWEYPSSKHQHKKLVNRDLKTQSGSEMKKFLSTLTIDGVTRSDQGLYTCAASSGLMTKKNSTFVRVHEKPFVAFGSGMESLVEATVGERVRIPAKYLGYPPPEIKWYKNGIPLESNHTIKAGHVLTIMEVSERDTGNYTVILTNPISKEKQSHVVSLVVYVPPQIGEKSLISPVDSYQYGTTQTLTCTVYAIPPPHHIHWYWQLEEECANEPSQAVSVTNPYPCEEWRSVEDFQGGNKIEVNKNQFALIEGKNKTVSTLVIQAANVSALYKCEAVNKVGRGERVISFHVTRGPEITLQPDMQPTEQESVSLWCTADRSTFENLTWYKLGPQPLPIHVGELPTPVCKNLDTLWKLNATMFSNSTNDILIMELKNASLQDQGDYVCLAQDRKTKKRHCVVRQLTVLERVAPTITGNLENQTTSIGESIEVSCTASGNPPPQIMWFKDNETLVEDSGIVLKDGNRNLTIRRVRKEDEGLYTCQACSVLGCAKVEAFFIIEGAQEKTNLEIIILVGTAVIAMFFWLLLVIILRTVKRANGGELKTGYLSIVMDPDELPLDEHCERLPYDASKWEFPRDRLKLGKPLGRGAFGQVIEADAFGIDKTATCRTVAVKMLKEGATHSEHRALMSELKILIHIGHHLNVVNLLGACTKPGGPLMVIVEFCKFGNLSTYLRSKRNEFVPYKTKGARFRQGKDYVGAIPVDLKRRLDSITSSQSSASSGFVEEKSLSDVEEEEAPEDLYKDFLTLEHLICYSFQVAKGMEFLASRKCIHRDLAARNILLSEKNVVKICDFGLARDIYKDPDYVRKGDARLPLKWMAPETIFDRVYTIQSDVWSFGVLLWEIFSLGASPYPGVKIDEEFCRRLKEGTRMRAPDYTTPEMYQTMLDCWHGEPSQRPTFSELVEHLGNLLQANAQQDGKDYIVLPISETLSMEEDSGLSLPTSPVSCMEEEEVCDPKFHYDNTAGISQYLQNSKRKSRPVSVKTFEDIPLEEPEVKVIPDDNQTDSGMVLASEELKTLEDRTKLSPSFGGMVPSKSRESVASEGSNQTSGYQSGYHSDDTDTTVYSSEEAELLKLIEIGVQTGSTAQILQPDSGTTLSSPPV
Chain of CDK9/cyclin T1 (O60563 whole entry): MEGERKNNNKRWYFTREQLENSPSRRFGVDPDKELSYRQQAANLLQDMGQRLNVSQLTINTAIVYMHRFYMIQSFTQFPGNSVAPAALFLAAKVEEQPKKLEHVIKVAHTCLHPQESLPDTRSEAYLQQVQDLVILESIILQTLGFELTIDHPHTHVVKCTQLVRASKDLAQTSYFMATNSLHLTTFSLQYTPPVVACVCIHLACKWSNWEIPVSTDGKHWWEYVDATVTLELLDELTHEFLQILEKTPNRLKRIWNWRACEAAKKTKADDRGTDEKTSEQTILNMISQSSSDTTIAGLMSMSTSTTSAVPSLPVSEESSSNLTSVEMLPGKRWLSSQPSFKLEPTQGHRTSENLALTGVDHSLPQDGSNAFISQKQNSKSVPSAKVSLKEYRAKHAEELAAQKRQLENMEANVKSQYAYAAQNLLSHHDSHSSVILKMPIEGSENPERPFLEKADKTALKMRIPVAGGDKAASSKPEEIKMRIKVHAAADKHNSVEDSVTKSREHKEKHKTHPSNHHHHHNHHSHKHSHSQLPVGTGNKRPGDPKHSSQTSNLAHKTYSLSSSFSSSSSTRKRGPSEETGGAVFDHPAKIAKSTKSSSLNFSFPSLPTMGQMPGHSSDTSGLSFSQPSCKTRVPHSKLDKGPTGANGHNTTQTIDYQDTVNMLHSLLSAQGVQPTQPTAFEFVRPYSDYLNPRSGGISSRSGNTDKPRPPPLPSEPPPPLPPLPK
Chain of CDK9/cyclin T1 (P50750 whole entry): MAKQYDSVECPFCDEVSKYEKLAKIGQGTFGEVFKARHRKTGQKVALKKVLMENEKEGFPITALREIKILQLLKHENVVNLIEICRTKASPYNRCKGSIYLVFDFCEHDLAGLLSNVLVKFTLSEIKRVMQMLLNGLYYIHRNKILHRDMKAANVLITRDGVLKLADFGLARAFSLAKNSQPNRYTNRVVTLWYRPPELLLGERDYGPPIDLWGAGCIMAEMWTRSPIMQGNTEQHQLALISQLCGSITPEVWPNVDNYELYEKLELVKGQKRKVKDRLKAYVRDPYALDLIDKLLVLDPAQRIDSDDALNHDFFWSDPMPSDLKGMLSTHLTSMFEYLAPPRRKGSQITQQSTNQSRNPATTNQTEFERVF

Usually IC50 stands for the concentration at which inhibition is half-maximal. Regarding `CCS(=O)(=O)c1ccc(OC)c(Nc2ncc(-c3cc4ccccc4s3)o2)c1`, the IC50 in [1] is 30 nM; in assay [2] it was 500 nM.
Turning to `Nc1nc(Nc2ccc(S(N)(=O)=O)cc2)nn1C(=S)Nc1c(F)cccc1F`, the IC50 in assay [3] is 260 nM; in [4], 8.9 nM; in assay [5] it was 120 nM; in assay [6] it was 150 nM; in assay [7], 320 nM; in assay [8] it was 180 nM.
`CCS(=O)(=O)c1ccc(OC)c(Nc2ncc(-c3ccc(CC#N)c(-c4ccccn4)c3)o2)c1`: the values for the 50% inhibitory concentration (IC50) in [9] and in assay [1] were 23 nM and 80 nM, respectively.
Consider `CCS(=O)(=O)c1ccc(OC)c(Nc2ncc(-c3ccc4cc(OC)ccc4c3)o2)c1`, for which the concentration for half-maximal inhibition (IC50) in assay [1] was 20 nM; in [2], 1000 nM.
With `CCS(=O)(=O)c1ccc(OC)c(Nc2ncc(/C=C/c3ccccc3)o2)c1`, the IC50 in assay [10] amounted to 200 nM; in assay [1] it was 40 nM; in assay [11], 7500 nM; in assay [12], 4000 nM; in assay [2], 7000 nM.
